These results are taken from patent publication US7008924B1, “VGF fusion polypeptides” (Amgen, Inc., priority 1999, dated 2006).

The subject of this assay is VGF knockout mice. The assay can be described thus: Biological activity of VGF polypeptide in knockout mice (body weight). The format is in vivo. To be noted: VGF gene knockout mice; intraperitoneal injection of 2 mg twice daily for five days; three of the four treated mice. As to the method:
The biological activity of VGF polypeptides in knockout mice was analyzed using VGF polypeptides synthesized by the Amgen Boulder Peptide Technology group using standard peptide synthesis protocols. Following peptide synthesis, VGF polypeptides from different batches were pooled and lyophilized. The peptide content for each VGF polypeptide was determined by hydrolysis with HCl.
VGF gene knockout mice were obtained from Steve Salton of Mt. Sinai School of Medicine, New York, N.Y. Prior to administration of VGF polypeptide, knockout mice were housed under LD 12:12 conditions (i.e., 12 hours of light and 12 hours of dark). Twenty-four hours before VGF polypeptide injection, knockout mice were individually caged and moved to a temporary housing room where the mice were kept for the remainder of the experiment under LD 12:12 conditions.
VGF polypeptide was administered to knockout mice twice daily (at 9:00 a.m. and 6:00 p.m.) by intraperitoneal injection of 2 mg of VGF-1a (SEQ ID NO: 2; Table I). Prior to injection, VGF-1a polypeptide was diluted to 16% in aCSF Solution Buffer (126.6 mM NaCl, 2.6 mM KCl, 2.0 mM MgCl2 and 1.4 mM CaCl2, 10 mM NaPO4, pH 7.4). Knockout mice were administered VGF-1a polypeptide for five days and the body weight of each mouse was measured daily. The body weight of treated mice was measured daily for three days following the withdrawal of VGF-1a polypeptide.

Consider “VGF-1a: VGF polypeptide, amino acid sequence AQEEADAEE (listed as Rattus norvegicus)”, for which the “gain in body weight” value is 10–15%.
